Key:
Experiment in all cases: MTT assay
Format in all cases: cell-based
[1] = tested on: WM793 melanoma tumour cell line; conditions: Homo sapiens, 48 h, read-out: MTT50
Protocol: (§1) All cell lines were assayed as asynchronously growing cells. Leukemic cell lines, OCI-AML-2, OCI-AML-3 (referred to hereafter as AML-2 and AML-3, respectively), NB-4, KK, B1, G2, and W1 were cultured in alpha-minimal essential medium (α-MEM) (Princess Margaret Hospital Media Services) supplemented with 10% fetal bovine serum (FBS) (Sigma, St. Louis, Mo.). Non-transformed, diploid fibroblast lines WI38 and IMR90, were cultured in α-MEM and MEM F-15, respectively supplemented with 10% FBS. Media for IMR90 cells was also supplemented with 1.5 g/L bicarbonate and 1 mM pyruvate. Breast tumour cell lines, MDA-231, SK-BR-3, MCF-7, ZR-751, and melanoma tumour cell lines, WM9, WM983, WM793, 1232, were grown in α-MEM supplemented with 10% fetal bovine serum. Prostate tumour cell lines, DU145 and PC-3, were grown in RPMI 1640 media supplemented with 10% FBS. All cell lines were cultured in the presence of penicillin/streptomycin. Mononucleated cells were isolated from normal bone marrow using Ficoll hypaque and then T-cell depleted. T-cell depletion was performed by incubating the mononucleated bone marrow cells in α-MEM at a concentration of 2×10^7 cells/mL with 10% absor FBS and 10% (v/v) sheep red blood cells for 4 to 16 h. Absor FBS was prepared beforehand by heating FBS at 56° C. for 1 h, incubating with sheep red blood cells at 0.5% (v/v) for 1 h and then filtering the FBS with a […]. The T-cell depleted, mononucleated cells were recovered using Ficoll hypaque and were maintained in α-MEM supplemented with 20% FBS and 10% 5637 ? nditioned media. 5637 conditioned media ? s previously harvested from confluent 5637 cells after a 3 day incubation. Normal bone marrow from bone marrow transplant donor was collected following informed consent according to institutional guidelines.
(§2) Approximately 20 mg of each compound was dissolved in 5 mL of ACS grade acetone (Sigma) using a 5 mL volumetric flask. Stock solutions of the compounds were stored in the dark at −20° C. Compounds were diluted prior to each experiment.
(§3) Adherent cells were seeded at 67×10^3 cells/mL in a 96 well plate (Falcon, Mississauga, Ontario) the day prior to exposure to compound. Suspension cells were seeded at 27×10^4 cells/mL in a 96 well plate the day of exposure to compound. Mononucleated, T-cell depleted normal bone marrow cells were seeded at 67×10^4 cells/mL in a 96 well plate the day of exposure to compound. Compounds and solvent control were added to cells and assayed in triplicate or sextuplet. Following 48 h of incubation at 37° C. with 5% CO2, 40 μL of a 5 mg/mL solution of 3-[4,5-dimethylthiazol-2-yl]-2,5-diphenyltetrazolium bromide (MTT) substrate (Sigma) in Dulbecco's phosphate-buffered saline (D-PBS) was added. After 4 h of incubation at 37° C. with 5% CO2, the resulting violet formazan precipitate was solubilized by the addition of 80 μL of a 0.01 M HCI, 10% sodium dodecyl sulfate (SDS; Sigma) solution overnight at 37° C. with 5% CO2. The plates were then analyzed using the BioRad Benchmark Microplate Reader (BioRad Laboratories, Hercules, Calif.) at 570 nm to determine the optical density of the samples. MTT data was analyzed using Prism 3.0 (GraphPad Software, Inc., San Diego, Calif.) by the Chou-Talalay method. MTT graphs shown are a representative experiment.
(§4) Adherent cells were seeded at 67×10^3 cells/mL in a 96 well plate (Falcon, Mississauga, Ontario) the day prior to exposure to compound. Suspension cells were seeded at 27×10^4 cells/mL in a 96 well plate the day of exposure to compound. Mononucleated, T-cell depleted normal bone marrow cells were seeded at 67×10^4 cells/mL in a 96 well plate the day of exposure to compound. Compounds and solvent control were added to cells and assayed in triplicate or sextuplet. […]

[2] = tested on: ZR-751 breast tumour cell line; conditions: Homo sapiens, ZR-75-1, 48 h, read-out: MTT50
Protocol: as §1, §2, §3, §4

[3] = tested on: WM983 melanoma tumour cell line; conditions: 48 h, read-out: MTT50
Protocol: as §1, §2, §3, §4

[4] = tested on: 1232 melanoma tumour cell line; conditions: 48 h, read-out: MTT50
Protocol: as §1, §2, §3, §4

[5] = tested on: WM9 melanoma tumour cell line; conditions: 48 h, read-out: MTT50
Protocol: as §1, §2, §3, §4

[6] = tested on: SK-BR-3 breast tumour cell line; conditions: Homo sapiens, 48 h, read-out: MTT50
Protocol: as §1, §2, §3, §4

[7] = tested on: DU145 prostate tumour cell line; conditions: Homo sapiens, DU-145, 48 h, read-out: MTT50
Protocol: as §1, §2, §3, §4

[8] = tested on: MDA-231 breast tumour cell line; conditions: Homo sapiens, MDA-MB-231, 48 h, read-out: MTT50
Protocol: as §1, §2, §3, §4

IC50 [1]: 47 µM
IC50 [2]: 52 µM
IC50 [3]: 47 µM
IC50 [4]: 56 µM
IC50 [5]: 41 µM
IC50 [6]: 59 µM
IC50 [7]: 65.4 µM
IC50 [8]: 68.9 µM
SMILES: CCC(=O)OCSSc1ccccc1 [Compound Q, 1-phenyl-1,2-dithiapropyl propionate]
